The experiment addresses T1, human kinase Mps-1 (Homo sapiens, UniProt P33981).
T1 construct: N-terminally GST-tagged human full length recombinant Mps-1 kinase; GST (N); purchased Invitrogen, Karslruhe, Germany PV4071
T1 sequence (P33981 1-857): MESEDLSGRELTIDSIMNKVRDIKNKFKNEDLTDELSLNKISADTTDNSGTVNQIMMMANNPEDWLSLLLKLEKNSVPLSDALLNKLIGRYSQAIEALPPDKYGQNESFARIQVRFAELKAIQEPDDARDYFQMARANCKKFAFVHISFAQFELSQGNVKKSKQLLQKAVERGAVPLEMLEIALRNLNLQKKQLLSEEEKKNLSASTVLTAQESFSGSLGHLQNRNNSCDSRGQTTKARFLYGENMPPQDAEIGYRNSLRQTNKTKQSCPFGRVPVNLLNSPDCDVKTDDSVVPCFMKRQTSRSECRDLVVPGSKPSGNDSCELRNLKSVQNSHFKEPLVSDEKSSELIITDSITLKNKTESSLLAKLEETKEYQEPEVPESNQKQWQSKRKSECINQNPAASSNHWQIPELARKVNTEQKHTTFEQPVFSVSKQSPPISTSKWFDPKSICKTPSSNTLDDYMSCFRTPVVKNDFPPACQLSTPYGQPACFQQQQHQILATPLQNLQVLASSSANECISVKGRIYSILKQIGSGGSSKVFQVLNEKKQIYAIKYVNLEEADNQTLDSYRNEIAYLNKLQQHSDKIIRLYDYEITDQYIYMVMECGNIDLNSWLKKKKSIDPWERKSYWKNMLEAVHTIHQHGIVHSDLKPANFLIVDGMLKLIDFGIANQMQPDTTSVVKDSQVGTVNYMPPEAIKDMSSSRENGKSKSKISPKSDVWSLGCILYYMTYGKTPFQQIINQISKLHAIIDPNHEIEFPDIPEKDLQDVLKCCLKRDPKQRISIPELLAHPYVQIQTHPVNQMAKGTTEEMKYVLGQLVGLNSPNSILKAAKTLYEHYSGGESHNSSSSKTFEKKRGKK
Nature of the experiment: Mps-1 kinase assay (TR-FRET). Format: biochemical. Conditions: Mps-1 TR-FRET kinase assay; avg; read-out: Mps1 avg (IC50 [mol/l]). As for the experimental part:
The human kinase Mps-1 phosphorylates a biotinylated substrate peptide. Detection of the phosphorylated product is achieved by time-resolved fluorescence resonance energy transfer (TR-FRET) from Europium-labelled anti-phospho-Serine/Threonine antibody as donor to streptavidin labelled with cross-linked allophycocyanin (SA-XLent) as acceptor. Compounds are tested for their inhibition of the kinase activity.
N-terminally GST-tagged human full length recombinant Mps-1 kinase (purchased from Invitrogen, Karslruhe, Germany, cat. no PV4071) was used. As substrate for the kinase reaction a biotinylated peptide of the amino-acid sequence biotin-Ahx-PWDPDDADITEILG (C-terminus in amide form, purchased from Biosyntan GmbH, Berlin) was used.
For the assay 50 nl of a 100-fold concentrated solution of the test compound in DMSO was pipetted into a black low volume 384we11 microtiter plate (Greiner Bio-One, Frickenhausen, Germany), 2 μl of a solution of Mps-1 in assay buffer [0.1 mM sodium-ortho-vanadate, 10 mM MgCl2,2 mM DTT, 25 mM Hepes pH 7.7, 0.05% BSA (w/v), 0.001% Pluronic F-127] were added and the mixture was incubated for 15 min at 22° C. to allow pre-binding of the test compounds to Mps-1 before the start of the kinase reaction. Then the kinase reaction was started by the addition of 3 μl of a solution of 16.7 μM adenosine-tri-phosphate (ATP, 16.7 μM=>final conc. in the 5 μl assay volume is 10 μM) and peptide substrate (1.67 μM=>final conc. in the 5 μl assay volume is 1 μM) in assay buffer and the resulting mixture was incubated for a reaction time of 60 min at 22° C. The concentration of Mps-1 in the assay was adjusted to the activity of the enzyme lot and was chosen appropriate to have the assay in the linear range, typical enzyme concentrations were in the range of about 0.5 nM (final conc. in the 5 μl assay volume). The reaction was stopped by the addition of 5 μl of a solution of TR-FRET detection reagents (100 mM Hepes pH 7.4, 0.1% BSA, 40 mM EDTA, 140 nM Streptavidin-XLent [#61GSTXLB, Fa. Cis Biointernational, Marcoule, France], 1.5 nM anti-phospho(Ser/Thr)-Europium-antibody [#AD0180, PerkinElmer LAS, Rodgau-Jugesheinn, Germany]. Instead of the 1.5 nM anti-phospho(Ser/Thr)-Europium-antibody a mixture of 2 nM unlabeled anti-phospho ser/thr-pro antibody MPM-2 [Millipore cat. #05-368] and 1 nM LANCE EU-W1024 labeled anti-mouse IgG antibody [Perkin-Elmer, product no. AD0077] can be used).
The resulting mixture was incubated 1 h at 22° C. to allow the binding of the phosphorylated peptide to the anti-phospho(Ser/Thr)-Europium-antibody. Subsequently the amount of phosphorylated substrate was evaluated by measurement of the resonance energy transfer from the Europium-labelled anti-phospho(Ser/Thr) antibody to the Streptavidin-XLent. Therefore, the fluorescence emissions at 620 nm and 665 nm after excitation at 350 nm was measured in a Viewlux TR-FRET reader (PerkinElmer LAS, Rodgau-Jugesheinn, Germany). The “blank-corrected normalized ratio” (a Viewlux specific readout, similar to the traditional ratio of the emissions at 665 nm and at 622 nm, in which blank and Eu-donor crosstalk are subtracted from the 665 nm signal before the ratio is calculated) was taken as the measure for the amount of phosphorylated substrate. The data were normalised (enzyme reaction without inhibitor=0% inhibition, all other assay components but no enzyme=100% inhibition).
For the compound `Cc1nsc(Nc2cnc(C(F)(F)F)cn2)c1C(=O)Nc1ccc(OCC2CCN(C(=O)OC(C)(C)C)C2)nc1` (stereo not drawn) [Example 109, tert-Butyl 3-{[(5-{[(3-methyl-5-{[5-(trifluoromethyl)pyrazin-2-yl]amino}-1,2-thiazol-4-yl)carbonyl]amino}pyridin-2-yl)oxy]methyl}pyrrolidine-1-carboxylate], the IC50 is at least 20 µM. For `Cc1nsc(Nc2cncc(C(F)(F)F)n2)c1C(=O)Nc1ccc(OCC2CCN(C(=O)OC(C)(C)C)C2)nc1` (stereo not drawn) [Example 110, tert-Butyl 3-{[(5-{[(3-methyl-5-{[6-(trifluoromethyl)pyrazin-2-yl]amino}-1,2-thiazol-4-yl)carbonyl]amino}pyridin-2-yl)oxy]methyl}pyrrolidine-1-carboxylate] the value was at least 20 µM. For the compound `CNS(=O)(=O)c1ccc(NC(=O)c2c(C)nsc2Nc2cnc3ccccc3n2)cc1` [Example 111, 3-Methyl-N-[4-(methylsulfannoyl)phenyl]-5-(quinoxalin-2-ylamino)-1,2-thiazole-4-carboxamide], the IC50 was at least 20 µM. For `CC(=O)N(C)CCOc1ccc(NC(=O)c2c(C)nsc2Nc2nc3c(C(F)(F)F)cccc3s2)cn1` [Example 112, N-(6-{2-[Acetyl(methyl)amino]-ethoxy}pyridin-3-yl)-3-methyl-5-{[4-(trifluoromethyl)-1,3-benzothiazol-2-yl]amino}-1,2-thiazole-4-carboxamide], the IC50 was at least 20 µM. With `Cc1nsc(Nc2cnc3ccccc3n2)c1C(=O)Nc1cccc(C(=O)N2CCCC2)c1` [Example 113, 3-Methyl-N-[3-(pyrrolidin-1-ylcarbonyl)phenyl]-5-(quinoxalin-2-ylamino)-1,2-thiazole-4-carboxamide], the IC50 worked out at 12 µM. `Cc1nsc(Nc2cc(C#N)ccn2)c1C(=O)Nc1cccc(C(=O)N2CCCC2)c1` [Example 114, 5-[(4-Cyanopyridin-2-yl)amino]-3-methyl-N-[3-(pyrrolidin-1-ylcarbonyl)phenyl]-1,2-thiazole-4-carboxamide]: the IC50 was at least 20 µM. For `Cc1nsc(Nc2cnc3ccccc3n2)c1C(=O)Nc1ccc(S(C)(=O)=O)cc1` [Example 115, 3-Methyl-N-[4-(methylsulfonyl)phenyl]-5-(quinoxalin-2-ylamino)-1,2-thiazole-4-carboxamide] the value was at least 20 µM; for `CCNS(=O)(=O)c1ccc(NC(=O)c2c(C)nsc2Nc2cnc3ccccc3n2)cc1` [Example 116, N-[4-(Ethylsulfamoyl)phenyl]-3-methyl-5-(quinoxalin-2-ylamino)-1,2-thiazole-4-carboxamide], at least 20 µM. `Cc1nsc(Nc2cnc3ccccc3n2)c1C(=O)Nc1ccc(Oc2cccc(C(F)(F)F)c2)nc1` [Example 117, 3-Methyl-5-(quinoxalin-2-ylamino)-N-{6-[3-(trifluoromethyl)phenoxy]pyridin-3-yl}-1,2-thiazole-4-carboxamide]: the IC50 is at least 20 µM. In the case of `Cc1nsc(Nc2ccc(C#N)cn2)c1C(=O)Nc1ccc(Oc2cccc(C(F)(F)F)c2)nc1` [Example 118, 5-[(5-Cyanopyridin-2-yl)amino]-3-methyl-N-{6-[3-(trifluoromethyl)phenoxy]pyridin-3-yl}-1,2-thiazole-4-carboxamide], the IC50 was at least 20 µM. For `Cc1nsc(Nc2cc(C#N)ccn2)c1C(=O)Nc1ccc(Oc2cccnc2)nc1` [Example 119, 5-[(4-Cyanopyridin-2-yl)amino]-3-methyl-N-[6-(pyridin-3-yloxy)pyridin-3-yl]-1,2-thiazole-4-carboxamide] the value was at least 20 µM. For `Cc1nsc(Nc2cnc(C(F)(F)F)cn2)c1C(=O)Nc1ccc(OCC2CCN(CCF)C2)nc1` (stereo not drawn) [Example 121, N-(6-{[1-(2-fluoroethyl)pyrrolidin-3-yl]methoxy}pyridin-3-yl)-3-methyl-5-{[5-(trifluoromethyl)pyrazin-2-yl]amino}-1,2-thiazole-4-carboxamide] the value was at least 20 µM; for `Cc1nsc(Nc2cnc(C(F)(F)F)cn2)c1C(=O)Nc1ccc(OCC2CCN(CC(F)F)C2)nc1` (stereo not drawn) [Example 122, N-(6-{[1-(2,2-difluoroethyl)pyrrolidin-3-yl]methoxy}pyridin-3-yl)-3-methyl-5-{[5-(trifluoromethyl)pyrazin-2-yl]amino}-1,2-thiazole-4-carboxamide], at least 20 µM; for `Cc1nsc(Nc2cnc(C(F)(F)F)cn2)c1C(=O)Nc1ccc(OCC2CCN(CC(F)(F)F)C2)nc1` (stereo not drawn) [Example 123, 3-Methyl-N-(6-{[1-(2,2,2-trifluoroethyl)pyrrolidin-3-yl]methoxy}pyridin-3-yl)-5-{[5-(trifluoromethyl)pyrazin-2-yl]amino}-1,2-thiazole-4-carboxamide], at least 20 µM. For `Cc1nsc(Nc2cnc(C(F)(F)F)cn2)c1C(=O)Nc1ccc(OCC2CCN(CCC(F)(F)F)C2)nc1` (stereo not drawn) [Example 124, 3-methyl-5-{[5-(trifluoromethyl)pyrazin-2-yl]amino}-N-(6-{[1-(3,3,3-trifluoropropyl)pyrrolidin-3-yl]methoxy}pyridin-3-yl)-1,2-thiazole-4-carboxamide], the IC50 is at least 20 µM. Regarding `Cc1nsc(Nc2cnc(C(F)(F)F)cn2)c1C(=O)Nc1ccc(OC[C@@H]2CCN(CC(F)(F)F)C2)nc1` [Example 128, 3-Methyl-N-(6-{[(3R)-1-(2,2,2-trifluoroethyl)pyrrolidin-3-yl]methoxy}pyridin-3-yl)-5-{[5-(trifluoromethyl)pyrazin-2-yl]amino}-1,2-thiazole-4-carboxamide], the IC50 is above 20 µM. `Cc1nsc(Nc2cnc(C(F)(F)F)cn2)c1C(=O)Nc1ccc(OC[C@@H]2CCN(CCC(F)(F)F)C2)nc1` [Example 129, 3-Methyl-5-{[5-(trifluoromethyl)pyrazin-2-yl]amino}-N-(6-{[(3R)-1-(3,3,3-trifluoropropyl)pyrrolidin-3-yl]methoxy}pyridin-3-yl)-1,2-thiazole-4-carboxamide]: the IC50 was above 20 µM. `Cc1nsc(Nc2cnc(C(F)(F)F)cn2)c1C(=O)Nc1ccc(O[C@@H]2CCN(CC(F)F)C[C@@H]2F)nc1` [Example 137, N-(6-{[(3S,4R)-1-(2,2-difluoroethyl)-3-fluoropiperidin-4-yl]oxy}pyridin-3-yl)-3-methyl-5-{[5-(trifluoromethyl)pyrazin-2-yl]amino}-1,2-thiazole-4-carboxamide]: the IC50 was above 20 µM.

Source of the values: patent US20170334899A1, “AMINO-SUBSTITUTED ISOTHIAZOLES” (Bayer Pharma Aktiengesellschaft, priority 2014, published 2017).
